What follows are compounds tested against T1, Phosphoglycerate kinase 1 (Homo sapiens, UniProt P00558) (assay: Inhibition of PGK1 (unknown origin) pre-incubated with enzyme before 3-phosphoglycerate substrate addition and incubated for 30 mins in presence of NADH and ATP by glyceraldehyde P-dehydrogenase coupling based NADH fluorescence assay).
T1 sequence (P00558 whole entry): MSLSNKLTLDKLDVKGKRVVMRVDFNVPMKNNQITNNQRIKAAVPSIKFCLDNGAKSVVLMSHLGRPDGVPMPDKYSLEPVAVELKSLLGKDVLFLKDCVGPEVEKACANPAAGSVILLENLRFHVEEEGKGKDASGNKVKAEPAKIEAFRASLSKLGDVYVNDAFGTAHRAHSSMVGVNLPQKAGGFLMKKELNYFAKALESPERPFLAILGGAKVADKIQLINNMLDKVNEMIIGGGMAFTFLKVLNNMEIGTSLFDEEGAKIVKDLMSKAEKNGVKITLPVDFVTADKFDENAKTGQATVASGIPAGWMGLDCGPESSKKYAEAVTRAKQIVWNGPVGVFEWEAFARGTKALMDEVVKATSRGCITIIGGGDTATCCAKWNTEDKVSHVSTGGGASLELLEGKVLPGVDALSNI

| IC50 | Structure (SMILES) |
| --- | --- |
| 78 nM | CCNc1nc2cc(OC)c(Cl)cc2nc1-c1cc2ccccc2s1 |
| 252 nM | CCNc1nc2cc(OC)c(Cl)cc2nc1NCCCN1CCCC1 |
| 385 nM | CCNc1nc2cc(Cl)c(C#CCCCCO)cc2nc1NCC |
| 54 nM | CCNc1nc2cc(Cl)c(C#CCCC#N)cc2nc1NCC |
| 270 nM | CCC#Cc1cc2nc(NCC)c(NCC)nc2cc1Cl |
| 596 nM | CCNc1nc2cc(Cl)c(-c3noc(CCO)n3)cc2nc1NCC |
| 5830 nM | CCNc1nc2cc(Cl)c(CC(=O)CCC(=O)O)cc2nc1NCC |
| 633 nM | CCNc1nc2cc(Cl)c(C#CC(=O)OC)cc2nc1NCC |
| 3160 nM | CCNc1nc2cc(Cl)c(C#CCCN3C(=O)c4ccccc4C3=O)cc2nc1NCC |
| 129 nM | CCNc1nc2cc(OC)c(Cl)cc2nc1NCc1cccnc1 |
| 840 nM | CCNc1nc2cc(OC)c(OC)cc2nc1NCCc1ccccn1 |
| 665 nM | CCNc1nc2cc(C#CCCO)c(Cl)cc2nc1C#CCCO |
| 1900 nM | CCNc1nc2cc(OC)c(Cl)cc2nc1-c1ccc(Cl)cc1 |
| 2300 nM | CCNc1nc2cc(OC)c(Cl)cc2nc1-c1ccc2c(c1)OCO2 |
| 1090 nM | CCNc1nc2cc(Cl)c(NC(=O)CCO)cc2nc1NCC |
| 24000 nM | CNc1nc2cc(OC)c(OC)cc2nc1Cl |
| 4140 nM | CCNc1nc2cc(Cl)c(NC(C)=O)cc2nc1NCC |
| 556 nM | CCNc1nc2cc(Cl)c(C#CC(N)=O)cc2nc1NCC |
| 36 nM | CN1CCN(CCNc2nc3cc(Cl)c(C#CCCO)cc3nc2NCCN2CCN(C)CC2)CC1 |
| 257 nM | CCNc1nc2cc(Cl)c(C#CCOC(=O)CC)cc2nc1NCC |
| 4360 nM | CCNc1nc2cc(OC)c(OC)cc2nc1NCCCN1CCCC1 |
| 15 nM | CCNc1nc2cc(Cl)c(C#N)cc2nc1NCc1cccnc1 |
| 91 nM | CCNc1nc2cc(OC)c(Cl)cc2nc1-c1cnn(Cc2ccccc2)c1 |

| IC50 | Structure (SMILES) |
| --- | --- |
| 71 nM | CCNc1nc2cc(Cl)c(C#N)cc2nc1NCCN1CCN(C)CC1 |
| 5700 nM | CCNc1nc2cc(Cl)c(C#Cc3cccc(O)c3)cc2nc1NCC |
| 41 nM | CCNc1nc2cc(C#CCCO)c(Cl)cc2nc1Cl |
| 240 nM | CCNc1nc2cc(OC)c(Cl)cc2nc1-c1cccc(C(N)=O)c1 |
| 570 nM | CCNc1nc2cc(Cl)c(C#CCCCC#N)cc2nc1NCC |
| 98 nM | CCNc1nc2cc(Cl)c([N+](=O)[O-])cc2nc1NCC |
| 38 nM | CCNc1nc2cc(Cl)c(C#N)cc2nc1NCC |
| 1100 nM | CCNc1nc2cc(OC)c(Cl)cc2nc1-c1ccc(C(C)=O)s1 |
| 75 nM | CCNc1nc2cc(OC)c(Cl)cc2nc1-c1cn[nH]c1 |
| 16 nM | CCNc1nc2cc(C#CCCO)c(Cl)cc2nc1NCCCN1CCN(C)CC1 |
| 103 nM | CCNc1nc2cc(Cl)c(C#CCOCCO)cc2nc1NCC |
| 42 nM | CCNc1nc2cc(Cl)c(C#CCCCO)cc2nc1NCC |
| 12 nM | C#Cc1cc2nc(NCC)c(NCC)nc2cc1Cl |
| 122 nM | CCNc1nc2cc(Cl)c(C#CCC(C)O)cc2nc1NCC (stereo not given) |
| 6320 nM | CCNc1nc2cc(OC)c(OC)cc2nc1Cl |
| 1180 nM | CCNc1nc2cc(OC)c(Cl)cc2nc1Cl |
| 346 nM | CN1CCN(CCNc2nc3cc(Cl)c(C#N)cc3nc2-c2ccccn2)CC1 |
| 19 nM | CCNc1nc2cc(Cl)c(C#CC3CC3)cc2nc1NCC |
| 1700 nM | CCNc1nc2cc(OC)c(Cl)cc2nc1-c1ccc(N2CCN(C(=O)OC(C)(C)C)CC2)nc1 |
| 2100 nM | CCNc1nc2cc(OC)c(Cl)cc2nc1-c1cccc(Cl)c1 |
| 4600 nM | CCNc1nc2cc(OC)c(Cl)cc2nc1-c1cnc2ccccc2c1 |
| 884 nM | CCCCC#Cc1cc2nc(NCC)c(NCC)nc2cc1Cl |
| 190 nM | CCNc1nc2cc(OC)c(Cl)cc2nc1-c1cccs1 |

| IC50 | Structure (SMILES) |
| --- | --- |
| 50000 nM | CCNc1nc2cc(OC)c(OC)cc2nc1NCC |
| 366 nM | CCNc1nc2cc(O)c(Cl)cc2nc1NCC |
| 10000 nM | COc1cc2nc(NCCCN3CCCC3)c(-c3ccncc3)nc2cc1OC |
| 4640 nM | CCNc1nc2cc(OC)c(OC)cc2nc1Br |
| 2010 nM | CCNc1nc2cc(OC)c(OC)cc2nc1NCc1ccncc1 |
| 1600 nM | CCNc1nc2cc(OC)c(Cl)cc2nc1-c1ccc2occc(=O)c2c1 |
| 393 nM | CCNc1nc2cc(Cl)c(C#CCNC(N)=O)cc2nc1NCC |
| 66 nM | CCNc1nc2cc(Cl)c(C#CCOC)cc2nc1NCC |
| 2000 nM | CCNc1nc2cc(OC)c(Cl)cc2nc1-c1csc2ccccc12 |
| 2000 nM | CCCC(O)C#Cc1cc2nc(NCC)c(NCC)nc2cc1Cl (stereo not given) |
| 2690 nM | CCNc1nc2cc(Cl)c(C#CC(C)(C)O)cc2nc1NCC |
| 550 nM | CCNc1nc2cc(OC)c(Cl)cc2nc1-c1cccc(C(=O)NCc2ccccc2)c1 |
| 210 nM | CCNc1nc2cc(OC)c(Cl)cc2nc1-c1cccc(C(=O)NCc2ccco2)c1 |
| 1050 nM | CCNc1nc2cc(Cl)c(C#CCCN)cc2nc1NCC |
| 16400 nM | COc1cc2nc(Br)c(NCCN3CCN(C)CC3)nc2cc1OC |
| 5 nM | CCNc1nc2cc(Cl)c(C#CCCO)cc2nc1NCC |
| 8 nM | CCNc1nc2cc(C#CCCO)c(Cl)cc2nc1NCCN1CCN(C)CC1 |
| 2000 nM | CCNc1nc2cc(OC)c(Cl)cc2nc1-c1ccccc1-c1ccccc1 |
| 195 nM | CCNc1nc2cc(OC)c(Cl)cc2nc1NCCCN1CCN(C)CC1 |
| 741 nM | CCNc1nc2cc(OC)c(OC)cc2nc1NCCc1ccncc1 |
| 66 nM | CCNc1nc2cc(OC)c(Cl)cc2nc1-c1cnn(C)c1 |
| 2530 nM | CCNc1nc2cc(OC)c(OC)cc2nc1NC |
| 220 nM | CCNc1nc2cc(OC)c(Cl)cc2nc1-c1ccc2c(ccn2C)c1 |

| IC50 | Structure (SMILES) |
| --- | --- |
| 1400 nM | CCNc1nc2cc(OC)c(Cl)cc2nc1-c1cc2ccccc2o1 |
| 9000 nM | CCNc1nc2cc(Cl)c(CC(=O)CCC(=O)OC)cc2nc1NCC |
| 1030 nM | CCNc1nc2cc(Cl)c(C#Cc3ccoc3)cc2nc1NCC |
| 515 nM | CCNc1nc2cc(OC)c(Cl)cc2nc1NC(C)CCCN(CC)CC (stereo not given) |
| 125 nM | CCNc1nc2cc(Cl)c(C#CC(C)O)cc2nc1NCC (stereo not given) |
| 1 nM | CCNc1nc2cc(Cl)c(C#CCO)cc2nc1NCC |
| 4810 nM | CCNc1nc2cc(Cl)c(C#CC(C)(O)CC)cc2nc1NCC (stereo not given) |
| 9 nM | CCNc1nc2cc(Cl)c(OC)cc2nc1NCC |
| 1500 nM | CCNc1nc2cc(OC)c(Cl)cc2nc1-c1cncc2ccccc12 |
| 1810 nM | CCNc1nc2cc(OC)c(OC)cc2nc1NCCCN1CCCC1=O |
| 10000 nM | CCNc1nc2cc(Cl)c(N3CC(CCO)C3)cc2nc1NCC |
| 1170 nM | CCNc1nc2cc(Cl)c(OC(F)(F)F)cc2nc1NCC |
| 6660 nM | CCNc1nc2cc(OC)c(OC)cc2nc1-c1ccncc1 |
| 1400 nM | CCNc1nc2cc(OC)c(Cl)cc2nc1-c1cccc2ncccc12 |
| 1280 nM | CCNc1nc2cc(OC)c(OC)cc2nc1NCc1ccccn1 |
| 7590 nM | COc1cc2nc(NCc3cccnc3)c(-c3ccncc3)nc2cc1OC |
| 4400 nM | CCNc1nc2cc(OC)c(Cl)cc2nc1-c1cccc2[nH]ccc12 |
| 320 nM | C#CCOc1cc2nc(NCC)c(NCC)nc2cc1Cl |
| 710 nM | CCNc1nc2cc(OC)c(OC)cc2nc1NCc1cccnc1 |
| 10000 nM | CCNc1nc2cc(OC)c(Cl)cc2nc1-c1cccc2ccccc12 |
| 173 nM | CCNc1nc2cc(OC)c(Cl)cc2nc1NCCN1CCN(C)CC1 |

Source: ChEMBL document CHEMBL3727373, “Phosphoglycerate kinase inhibitors” (2012)
